Laboratory results: US7030132B2, “Method of improving bioavailability of orally administered drugs, a method of screening for enhancers of such bioavailability and novel pharmaceutical compositions for oral delivery of drugs” (Cancer Research Ventures Limited, priority 1999, dated 2006)
Where two headings read alike, the source gives them in different places.

Experiments:
[1] = system: T8 resistant cells; assay: Cytotoxicity, sulphorhodamine (SRB) assay, T8 resistant (BCRP overexpressing) cells; assay type: cell-based, human; settings: for IC50: T8 resistant cells; for ratio −/+ GF120918 (T8): IC50 without / with 2 μM GF120918, T8
Method: (§1) Cytotoxicity was Determined Using the Sulphorhodamine (SRB) Assay. Cells were plated in 96-wells plates, 1500 cells/well. Cells were cultured for 48 h at 37° C. and 5% CO2 in the absence of drugs. Then, in a serial dilution from approximately 1 μM to approximately 0.05 nM drugs were added, and cells were cultured for another 5 days at 37° C. and 5% CO2 Next cells are fixated in the plate, washed, and coloured with SRB. After 20 min unbound SRB is washed away using 0.1 M acetic acid. SRB that is bound to the cells is dissolved in 10 mM Tris-HCl buffer. Using a 96-well plate reader the absorbance at 540 nm is measured. For each drug the IC50 value was determined. Results are the mean of at least 3 experiments.

[2] = system: IGROV1 parental cells; assay: Cytotoxicity, sulphorhodamine (SRB) assay, IGROV1 parental cells; assay type: cell-based, human; settings: for IC50: IGROV1 parental cells; for ratio −/+ GF120918 (IGROV1): IC50 without / with 2 μM GF120918, IGROV1
Method: as §1

[3] = Clinical trial: oral topotecan with or without GF120918, plasma levels; assay type: in vivo; settings: three patients, topotecan 1.0 mg/m2 oral, with or without oral GF120918 (1000 mg)
Method: In this example the first results of a clinical trial are shown. Three patients received topotecan orally at a dosis of 1.0 mg.m^−2. Topotecan was administered with or without GF120918 (1000 mg). For illustrative purposes, the plasma concentration vs. time is shown for one patient in FIG. 2. In FIG. 3 the average including the standard deviation is shown for all three patients.

[4] = Effect of GF120918 on oral bioavailability of topotecan in mdr1a/1b (-/-) mice; assay type: in vivo; settings: topotecan 1 mg/kg oral, GF120918 50 mg/kg oral 15 min prior, plasma
Excerpt: The tests with mice assessed the bioavailability of the drug in mdr1a/1b double knock out mice in the presence and the absence of a BCRP inhibitor. The bioavailability tests can also be carried out with either MRP and/or P-gp knock out mice thus enabling assessment of whether any effect found due to the presence of the bioinhibitor is due solely to BCRP, not due to P-gp and/or MRP. Thus it can be determined whether the particular drug transported is transported using one or more transport systems. The drug to be transported can be provided with a detectable marker to assess where it is located and to be able to quantitate it. Some drugs can be detected and quantitated in plasma without use of a detectable marker. The methodology employed is analogous to that disclosed in the Lancet article discussed above and is also described in Br. J. Cancer 1997, 76: 1181–1183. The methodology is thus considered to be incorporated by reference and is considered enabled to a person skilled in the art. […]
GF120918 was suspended in a hydroxypropylmethylcellulose (10 g/l): Tween 80 (2% v/v): H2O (0.5:1:98.5 v/v/v) formulation for oral administration, at 5 mg.ml^−1. […] Topotecan levels in plasma were determined by HPLC analysis as described by Rosing et al., 1995, J. Chromatography, 668: 107–115, and are depicted in FIG. 1.

[5] = Homo sapiens, without GF120918, read-out: T8 IC50
[6] = + 2 μM GF120918, read-out: T8 + GF120918 IC50
[7] = Homo sapiens, IGROV-1, 120 h, without GF120918, 5 days drug exposure, read-out: IGROV1 IC50
[8] = + 2 μM GF120918, read-out: IGROV1 + GF120918 IC50
[9] = without GF120918, read-out: T8 IC50
[10] = without GF120918, 5 days drug exposure, read-out: IGROV1 IC50

For `CC[C@@]1(O)C(=O)OCc2c1cc1n(c2=O)Cc2c-1nc1ccccc1c2CC[Si](C)(C)C` [BNP1350], the “Rf (resistance factor) T8 + GF120918” value ([1]; + 2 μM GF120918) was 4.1, the IC50 [1, 5] was 4.94 nM and the “ratio −/+ GF120918 (T8)” value [1] was 1.4. The IC50 [1, 6] was 3.45 nM, the “Rf (resistance factor, IC50 T8 / IC50 IGROV1)” value ([1]; without GF120918) was 11 and the IC50 [2, 7] was 0.44 nM. For the same compound, the “ratio −/+ GF120918 (IGROV1)” value [2] was 0.53 and the IC50 [2, 8] was 0.84 nM.
For `CCc1c2c(nc3ccc(OC(=O)N4CCC(N5CCCCC5)CC4)cc13)-c1cc3c(c(=O)n1C2)COC(=O)[C@]3(O)CC` [CPT11, irinotecan], the “Rf (resistance factor) T8 + GF120918” value ([1]; + 2 μM GF120918) was 4.7, the IC50 [1, 5] was 34000 nM and the “ratio −/+ GF120918 (T8)” value [1] was 11.2. The IC50 [1, 6] was 3040 nM, the “Rf (resistance factor, IC50 T8 / IC50 IGROV1)” value ([1]; without GF120918) was 62 and the IC50 [2, 7] was 544 nM. The “ratio −/+ GF120918 (IGROV1)” value [2] was 0.84 and the IC50 [2, 8] was 651 nM.
In the case of `CC[C@@]1(O)C(=O)OCc2c1cc1n(c2=O)Cc2c-1nc1cc(F)c(C)c3c1c2C(N)CC3.CS(=O)(=O)O` (stereo partly shown) [DX8951f], the “Rf (resistance factor) T8 + GF120918” value ([1]; + 2 μM GF120918) is reported as 2.3, the “ratio −/+ GF120918 (T8)” value [1] is reported as 7.4 and the IC50 [1, 6] is reported as 0.39 nM. The IC50 [1, 9] was 2.88 nM, the “Rf (resistance factor, IC50 T8 / IC50 IGROV1)” value ([1]; without GF120918) was 29 and the “ratio −/+ GF120918 (IGROV1)” value [2] was 0.60. For the same compound, the IC50 [2, 8] was 0.17 nM and the IC50 [2, 10] was 0.1 nM.
With `COc1cc2c(cc1OC)CN(CCc1ccc(NC(=O)c3cccc4c(=O)c5cccc(OC)c5[nH]c34)cc1)CC2` [GF120918] the “reversal of resistance of T8 for topoisomerase I drugs” value ([1]; addition of 2 μM GF120918) was “for the greater part reversed” and the “effect of GF120918 on the sensitivity of the parental cell line IGROV1” value ([2]; 2 μM GF120918, topoisomerase I drugs) was “no or very little effect”.
With `CC[C@@]1(O)C(=O)OCc2c1cc1n(c2=O)Cc2c-1nc1cc3c(cc1c2CN1CCN(C)CC1)OCCO3` [GG211] the “Rf (resistance factor) T8 + GF120918” value ([1]; + 2 μM GF120918) was 5.3, the “ratio −/+ GF120918 (T8)” value [1] was 4.9 and the IC50 [1, 6] was 4.57 nM. The IC50 [1, 9] was 22.4 nM, the “Rf (resistance factor, IC50 T8 / IC50 IGROV1)” value ([1]; without GF120918) was 35 and the “ratio −/+ GF120918 (IGROV1)” value [2] was 0.74. The IC50 [2, 8] was 0.87 nM and the IC50 [2, 10] was 0.64 nM.
With `CCc1c2c(nc3ccc(O)cc13)-c1cc3c(c(=O)n1C2)COC(=O)[C@]3(O)CC` [SN-38] the “Rf (resistance factor) T8 + GF120918” value ([1]; + 2 μM GF120918) was 6.0, the “ratio −/+ GF120918 (T8)” value [1] was 64.1 and the IC50 [1, 6] was 6.54 nM. The IC50 [1, 9] was 419 nM, the “Rf (resistance factor, IC50 T8 / IC50 IGROV1)” value ([1]; without GF120918) was 231 and the “ratio −/+ GF120918 (IGROV1)” value [2] was 1.66. The IC50 [2, 8] was 1.1 nM and the IC50 [2, 10] was 1.82 nM.
For `CC[C@@]1(O)C(=O)OCc2c1cc1n(c2=O)Cc2cc3c(CN(C)C)c(O)ccc3nc2-1` [topotecan], the “systemic exposure (AUC) to oral topotecan” value [3] was “increased systemic exposure”, the “increase in the area under the curve (AUC) of oral topotecan” value [4] was “approximately 6 fold” and the “Rf (resistance factor) T8 + GF120918” value ([1]; + 2 μM GF120918) was 4.3. For the same compound, the IC50 [1, 5] was 979 nM, the “ratio −/+ GF120918 (T8)” value [1] was 24.4 and the IC50 [1, 6] was 40.2 nM. For the same compound, the “Rf (resistance factor, IC50 T8 / IC50 IGROV1)” value ([1]; without GF120918) was 110, the IC50 [2, 7] was 8.93 nM and the “ratio −/+ GF120918 (IGROV1)” value [2] was 0.97. For the same compound, the IC50 [2, 8] was 9.23 nM.
